From article PMC10318456, “Selective inhibitors of the PSEN1–gamma-secretase complex” (The Journal of Biological Chemistry, 2023)

Columns and labels:
Type in all cases: cell-based
[1] = target: T1, PSEN1 T147A–APH1A γ-secretase complex (Homo sapiens, UniProt P49768+Q92542+Q96BI3+Q9NZ42, T147A); assay: Aβ40 secretion, MEF cell pool restored with PSEN1 T147A–APH1A; conditions: PSEN1 T147A (TM2)–APH1A cell pool; N = 3 to 4; mean (95% CI); decimal comma
T1 construct: expressed in transfected cells; host or cells: Psen1/2 double KO/Aph1ABC triple KO MEFs, pools without clonal selection
Protocol: (§1) We turned to experimental site–directed mutagenesis and selected a series of amino acids (Fig. 3) in the entrance channel for mutation to alanine. […] More importantly, they were all enzymatically active as shown by the secretion of Aβ40 in the supernatants of the cell cultures (Fig. 3B).
(§2) Conditional Psen1/2 double KO mice were crossed with conditional Aph1ABC triple KO mice ([29], [52], [58], [59]). At embryonic day 7.5, embryos were dissected and dissociated, and cells were plated in the presence of Dulbecco’s modified Eagle’s medium (DMEM)/F12 50% fetal calf serum (FCS) (Invitrogen). Primary MEFs were immortalized by transduction with LargeT antigen. Psen1/2 double KO/Aph1ABC triple KO MEFs were generated by transduction with a Cre-GFP–expressing adenoviral vector, and GFP-positive MEFs were sorted by fluorescence-activated cell sorting analysis. Psen1/2 Aph1ABC-deficient MEFs were maintained in DMEM/f12 10% FCS. To rescue γ-secretase expression, Psen1/2 double KO/Aph1ABC triple KO MEFs were transduced using Murine Stem Cell Virus retroviral vector system (pMSCV) viral vectors (Clontech) containing the human coding sequences of the different PSEN and APH1 homologs and the zeocin selection marker. An Internal Ribosome Entry Site sequence was cloned between the coding sequences for PSEN and APH1 to ensure co-expression of both proteins. Stable transfected cell lines were selected using 500-μg/ml zeocin (Invitrogen). Four different combinations were made: PSEN1 and APH1AL, PSEN1 and APH1B, PSEN2 and APH1AL, and PSEN2 and APH1B. These cell lines were transduced with pMSCV viral vectors (Clontech) expressing APP-C99-GFP-puromycin. […]
(§3) The number of plated cells and incubation times were determined in respect to linearity of Aβ peptide secretion, the dynamic range of Aβ peptide quantification in the medium, and sensitivity to dimethylsulfoxide (DMSO). […] The cell viability was assessed using the CellTiter-Glo Luminescent assay (Promega) that measures ATP production. […] We however measured five compounds at the Leuven site and noticed that absolute IC50 values were different (Fig. S2). […]

[2] = target: T2, PSEN1 Y154A–APH1A γ-secretase complex (Homo sapiens, UniProt P49768+Q92542+Q96BI3+Q9NZ42, Y154A); assay: Aβ40 secretion, MEF cell pool restored with PSEN1 Y154A–APH1A; conditions: PSEN1 Y154A (TM2)–APH1A cell pool; N = 3 to 4; mean (95% CI); decimal comma
T2 construct: expressed in transfected cells; host or cells: Psen1/2 double KO/Aph1ABC triple KO MEFs, pools without clonal selection
Protocol: as §1, §2, §3

[3] = target: T3, PSEN1 L172A–APH1A γ-secretase complex (Homo sapiens, UniProt P49768+Q92542+Q96BI3+Q9NZ42, L172A); assay: Aβ40 secretion, MEF cell pool restored with PSEN1 L172A–APH1A; conditions: PSEN1 L172A (TM3)–APH1A cell pool; N = 3 to 4; mean (95% CI); decimal comma
T3 construct: expressed in transfected cells; host or cells: Psen1/2 double KO/Aph1ABC triple KO MEFs, pools without clonal selection
Protocol: as §1
Conditional Psen1/2 double KO mice were crossed with conditional Aph1ABC triple KO mice ([29], [52], [58], [59]). At embryonic day 7.5, embryos were dissected and dissociated, and cells were plated in the presence of Dulbecco’s modified Eagle’s medium (DMEM)/F12 50% fetal calf serum (FCS) (Invitrogen). Primary MEFs were immortalized by transduction with LargeT antigen. Psen1/2 double KO/Aph1ABC triple KO MEFs were generated by transduction with a Cre-GFP–expressing adenoviral vector, and GFP-positive MEFs were sorted by fluorescence-activated cell sorting analysis. Psen1/2 Aph1ABC-deficient MEFs were maintained in DMEM/f12 10% FCS. To rescue γ-secretase expression, Psen1/2 double KO/Aph1ABC triple KO MEFs were transduced using Murine Stem Cell Virus retroviral vector system (pMSCV) viral vectors (Clontech) containing the human coding sequences of the different PSEN and APH1 homologs and the zeocin selection marker. An Internal Ribosome Entry Site sequence was cloned between the coding sequences for PSEN and APH1 to ensure co-expression of both proteins. Stable transfected cell lines were selected using 500-μg/ml zeocin (Invitrogen). Four different combinations were made: PSEN1 and APH1AL, PSEN1 and APH1B, PSEN2 and APH1AL, and PSEN2 and APH1B. These cell lines were transduced with pMSCV viral vectors (Clontech) expressing APP-C99-GFP-puromycin. After puromycin selection (5 μg/ml), GFP-positive cells were selected through FACS sorting. For the alanine mutagenesis experiment, pMSCV PSEN1-APH1A viral vectors were generated by using a long PCR-based QuikChange strategy (Stratagene). Stable cell lines without clonal selection were generated for each mutant as described above. All cell lines were regularly tested for the absence of mycoplasma and used for maximum 20 passages in culture.
The number of plated cells and incubation times were determined in respect to linearity of Aβ peptide secretion, the dynamic range of Aβ peptide quantification in the medium, and sensitivity to dimethylsulfoxide (DMSO). […] MEF cells were plated in DMEM F12 supplemented with 10% FCS at 10,000 cells per well in 96-well clear bottom plates in the late afternoon and cultured for 16 h at 37 °C, 5% CO2. In the morning of the second day, the medium was replaced with 60 μl of DMEM/F12 supplemented with 2% FCS, and GSI or DMSO (controls) were added. Compounds were tested in serial dilutions with concentrations ranging from […] to 0.1 nM with 3-fold changes. The final concentration of DMSO in all wells was 0.2%. Plates were put in the incubator again at 37 °C, 5% CO2. After 8 h, the culture media were collected, and 30 μl was used to measure Aβ40 peptides. The cell viability was assessed using the CellTiter-Glo Luminescent assay (Promega) that measures ATP production. All screens were performed at one site, and reported IC50 values throughout the manuscript are from this site (Beerse) unless otherwise indicated. We however measured five compounds at the Leuven site and noticed that absolute IC50 values were different (Fig. S2). The main goal of the current work is to explore the basis for inhibitor selectivity for different γ-secretases, and selectivity was consistent in the assays at the two sites (Fig. S2).
Standard 96-well SECTOR plates (MSD) were coated with 1.5 μg/ml anti-Aβ JRFcAβ40/28 capture antibody in a final volume of 50 μl of PBS 0.05% Tween 20. After overnight incubation at 4 °C, the plates were five times rinsed with PBS 0.05% Tween 20 and blocked with 150 μl per well of casein buffer (PBS with 1% casein, pH 7.4) for 4 h at room temperature. Standards (synthetic human Aβ 1–40) were diluted in culture media. […]

[4] = target: T4, PSEN1 T147A–APH1A γ-secretase complex (Homo sapiens, UniProt P49768, T147A); assay: Aβ40 secretion, MEF cell pool restored with PSEN1 T147A–APH1A; conditions: decimal comma
T4 construct: expressed in transfected cells; host or cells: Psen1/2 double KO/Aph1ABC triple KO MEFs, pools without clonal selection
Protocol: as §1, §2, §3

[5] = target: T5, PSEN1 Y154A–APH1A γ-secretase complex (Homo sapiens, UniProt P49768, Y154A); assay: Aβ40 secretion, MEF cell pool restored with PSEN1 Y154A–APH1A; conditions: decimal comma
T5 construct: expressed in transfected cells; host or cells: Psen1/2 double KO/Aph1ABC triple KO MEFs, pools without clonal selection
Protocol: as §1, §2, §3

[6] = target: T6, PSEN1 W165A–APH1A γ-secretase complex (Homo sapiens, UniProt P49768, W165A); assay: Aβ40 secretion, MEF cell pool restored with PSEN1 W165A–APH1A; conditions: decimal comma
T6 construct: expressed in transfected cells; host or cells: Psen1/2 double KO/Aph1ABC triple KO MEFs, pools without clonal selection
Protocol: as §1, §2, §3

Compound | IC50 [1] [µM] | IC50 [2] [µM] | IC50 [3] [µM] | IC50 ([4]; PSEN1 T147A (TM2)–APH1A cell pool, N = 3 to 4, mean (95% CI)) [µM] | IC50 fold change to WT ([4]; PSEN1 T147A–APH1A cell pool) | IC50 ([5]; PSEN1 Y154A (TM2)–APH1A cell pool, N = 3 to 4, mean (95% CI)) [µM] | IC50 fold change to WT ([5]; PSEN1 Y154A–APH1A cell pool) | IC50 ([6]; PSEN1 W165A (TM3)–APH1A cell pool, N = 3 to 4, mean (95% CI)) [µM] | IC50 fold change to WT ([6]; PSEN1 W165A–APH1A cell pool)
O=S(=O)(c1ccc(Cl)cc1)N1[C@H]2CC[C@@H]([C@H]1c1ccc(C(F)(F)F)cc1)[C@@H](O)C2 [(+)-9b] | 0.852 | 1.03 | 0.0094 | – | – | – | – | – | –
C[C@H](NC(=O)Cc1cc(F)cc(F)c1)C(=O)N[C@H](C(=O)OC(C)(C)C)c1ccccc1 [DAPT] | – | – | – | 0.477 | 2,826 fold | 0.103 | 0,611 fold | 0.304 | 1,802 fold
